The record followed here is US20210198277A1, “AMINE-SUBSTITUTED ARYL OR HETEROARYL COMPOUNDS” (Epizyme, Inc., priority 2016, published 2021).

Usually IC50 stands for the concentration at which inhibition is half-maximal.

Structures are written as SMILES. Where a name gives a salt, the structure may show the parent alone.

One assay addresses T1, human EHMT2 913-1193 (Homo sapiens, UniProt Q96KQ7).
T1 construct: recombinant purified human EHMT2 913-1193, Viva; purchased Viva
T1 sequence (Q96KQ7 913-1193): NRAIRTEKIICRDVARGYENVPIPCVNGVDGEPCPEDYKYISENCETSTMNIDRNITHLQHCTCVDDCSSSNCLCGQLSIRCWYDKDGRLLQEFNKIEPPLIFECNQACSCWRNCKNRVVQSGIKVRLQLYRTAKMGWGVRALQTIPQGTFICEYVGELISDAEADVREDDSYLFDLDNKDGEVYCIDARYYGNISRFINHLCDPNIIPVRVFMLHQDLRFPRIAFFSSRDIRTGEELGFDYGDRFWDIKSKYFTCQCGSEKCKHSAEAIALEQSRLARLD
Put plainly: EHMT2 enzyme assay on histone peptide substrate (EHMT2 PEP). Format: biochemical. Conditions: Table II; read-out: EHMT2 PEP (IC50 μM). In outline: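 Radiometric methyltransferase assay: 0.031 nM EHMT2 913-1193 preincubated 30 min with compound (10-point 3-fold series, top final 50 μM, 2% DMSO) in 20 mM Bicine pH 7.5, 1 mM TCEP. Biotinylated histone peptide methylated with ^3H-SAM for 60 min at room temperature, quenched with unlabeled SAM, captured on streptavidin Flashplates and counted.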

The next assay addresses T2, EHMT1 (Homo sapiens, UniProt Q9H9B1).
T2 sequence (Q9H9B1 1-1298): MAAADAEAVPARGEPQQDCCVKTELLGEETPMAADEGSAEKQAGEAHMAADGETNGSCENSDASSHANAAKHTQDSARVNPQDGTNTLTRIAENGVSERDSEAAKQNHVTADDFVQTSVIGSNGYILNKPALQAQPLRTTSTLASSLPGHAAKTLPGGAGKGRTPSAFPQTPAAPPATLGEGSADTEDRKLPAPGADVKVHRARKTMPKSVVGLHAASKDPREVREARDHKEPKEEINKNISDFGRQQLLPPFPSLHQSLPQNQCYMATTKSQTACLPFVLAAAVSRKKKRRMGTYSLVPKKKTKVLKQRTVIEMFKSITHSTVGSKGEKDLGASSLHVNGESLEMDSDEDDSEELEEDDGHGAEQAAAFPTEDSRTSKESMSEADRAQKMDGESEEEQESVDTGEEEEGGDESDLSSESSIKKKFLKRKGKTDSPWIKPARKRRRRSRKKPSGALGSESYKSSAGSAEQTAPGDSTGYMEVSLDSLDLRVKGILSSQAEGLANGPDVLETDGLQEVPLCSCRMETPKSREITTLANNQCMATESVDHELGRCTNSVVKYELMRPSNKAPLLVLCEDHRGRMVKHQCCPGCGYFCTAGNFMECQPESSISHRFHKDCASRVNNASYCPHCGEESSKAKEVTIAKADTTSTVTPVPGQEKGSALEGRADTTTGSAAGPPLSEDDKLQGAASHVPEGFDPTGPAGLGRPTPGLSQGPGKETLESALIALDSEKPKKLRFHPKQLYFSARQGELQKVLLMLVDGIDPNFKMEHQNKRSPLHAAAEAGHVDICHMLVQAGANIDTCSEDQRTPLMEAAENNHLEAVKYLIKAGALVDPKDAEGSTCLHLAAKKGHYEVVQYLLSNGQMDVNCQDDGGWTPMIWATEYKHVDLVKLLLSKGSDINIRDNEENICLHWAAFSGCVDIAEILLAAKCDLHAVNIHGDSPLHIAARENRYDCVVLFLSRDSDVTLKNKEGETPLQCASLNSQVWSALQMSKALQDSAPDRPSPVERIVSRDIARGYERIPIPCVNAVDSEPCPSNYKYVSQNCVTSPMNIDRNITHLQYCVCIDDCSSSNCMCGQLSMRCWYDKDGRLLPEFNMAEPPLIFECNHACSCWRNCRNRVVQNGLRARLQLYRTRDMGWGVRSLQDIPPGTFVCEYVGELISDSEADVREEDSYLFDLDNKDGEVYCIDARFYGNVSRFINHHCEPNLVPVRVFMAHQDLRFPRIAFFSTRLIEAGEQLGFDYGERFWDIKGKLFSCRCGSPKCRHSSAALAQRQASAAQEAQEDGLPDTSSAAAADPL
Put plainly: EHMT1 enzyme assay on peptide substrate (EHMT1 PEP). In kind it is biochemical. Conditions: Table II; read-out: EHMT1 PEP (IC50 μM).

`COc1ccc(Nc2nccc(NC(C)(C)C)n2)cc1OCCCN1CCCC1` [Compound 6, N^4-(tert-butyl)-N^2-(4-methoxy-3-(3-(pyrrolidin-1-yl)propoxy)phenyl)pyrimidine-2,4-diamine]: the figures for the IC50 on human EHMT2 913-1193 and at EHMT1 were under 0.1 µM and 0.1 to 1 µM, respectively.
For `COc1ccc(Nc2ccnc(NCC3CCNCC3)n2)cc1OCCCN1CCCC1` [Compound 7, 4-N-[4-methoxy-3-[3-(pyrrolidin-1-yl)propoxy]phenyl]-2-N-(piperidin-4-ylmethyl)pyrimidine-2,4-diamine hydrochloride], in that order: under 0.1 µM and under 0.1 µM.
On to `CC(=O)N1CCC(CNc2ccnc(Nc3ccc(Cl)c(OCCCN4CCCC4)c3)n2)CC1` [Compound 8, 1-(4-(((2-((4-chloro-3-(3-(pyrrolidin-1-yl)propoxy)phenyl)amino)pyrimidin-4-yl)amino)methyl)piperidin-1-yl)ethan-1-one], for which the IC50 at human EHMT2 913-1193 and on EHMT1 was 0.1 to 1 µM throughout.
On to `CNC(=O)c1cnc(Nc2ccc(OC)c(OCCCN3CCCC3)c2)nc1` [Compound 9, 2-((4-methoxy-3-(3-(pyrrolidin-1-yl)propoxy)phenyl)amino)-N-methylpyrimidine-5-carboxamide], for which the IC50 at human EHMT2 913-1193 was 1 to 10 µM; on EHMT1, over 10 µM.
Consider `COc1ccc(Nc2cc(NCC3CCNCC3)ccn2)cc1OCCCN1CCCC1` [Compound 10, N^2-(4-methoxy-3-(3-(pyrrolidin-1-yl)propoxy)phenyl)-N^4-(piperidin-4-ylmethyl)pyridine-2,4-diamine], for which the figures for the IC50 at human EHMT2 913-1193 and at EHMT1 were under 0.1 µM and 0.1 to 1 µM, respectively.
For `COc1cnc(Nc2ccnc(CNC3CCOCC3)c2)cc1OCCCN1CCCC1` [Compound 12, 5-methoxy-4-(3-(pyrrolidin-1-yl)propoxy)-N-(2-(((tetrahydro-2H-pyran-4-yl)amino)methyl)pyridin-4-yl)pyridin-2-amine], in that order: 1 to 10 µM and 1 to 10 µM.
On to `COc1ccc(Nc2ccnc(N(C)CC3CCN(C(C)=O)CC3)c2)cc1OCCCN1CCCC1` [Compound 13, 1-(4-(((4-((4-methoxy-3-(3-(pyrrolidin-1-yl)propoxy)phenyl)amino)pyridin-2-yl)(methyl)amino)methyl)piperidin-1-yl)ethan-1-one], for which the IC50 on human EHMT2 913-1193 and on EHMT1 was over 10 µM in each case.
With `COc1ccc(Nc2nccc(OCC3CCN(C(C)=O)CC3)n2)cc1OCCCN1CCCC1` [Compound 14, 1-(4-(((2-((4-methoxy-3-(3-(pyrrolidin-1-yl)propoxy)phenyl)amino)pyrimidin-4-yl)oxy)methyl)piperidin-1-yl)ethan-1-one], the IC50 at human EHMT2 913-1193 and at EHMT1 was over 10 µM each time.
With `COc1ccc(Nc2nccc(NCC3CCNCC3)n2)cc1OCC(O)CN1CCCC1` (stereo not shown) [Compound 15, 1-(2-methoxy-5-((4-((piperidin-4-ylmethyl)amino)pyrimidin-2-yl)amino)phenoxy)-3-(pyrrolidin-1-yl)propan-2-ol], the IC50 at human EHMT2 913-1193 and on EHMT1 was under 0.1 µM each time.
For `COc1ccc(Nc2nc(NCC3CCNCC3)cc(N3CCCC3)n2)cc1OCCCN1CCCC1` [Compound 103], the IC50 on human EHMT2 913-1193 and at EHMT1 was 0.1 to 1 µM each time.
On to `COc1ccc(Nc2cc(CNC3CCNCC3)n(C)n2)cc1OCCCN1CCCC1` [Compound 126], for which the IC50 on human EHMT2 913-1193 and on EHMT1 was over 10 µM throughout.
Turning to `COc1ccc(Nc2cc(CNC3CCOCC3)n(C)n2)cc1OCCCN1CCCC1` [Compound 127], the IC50 on human EHMT2 913-1193 and on EHMT1 was over 10 µM throughout.
With `COc1ccc(Nc2nccc(N3CCc4[nH]ncc4C3)n2)cc1OCCCN1CCCC1` [Compound 128], the IC50 at human EHMT2 913-1193 and at EHMT1 was over 10 µM each time.
Consider `COc1ccc(Nc2nccc(-c3c(C)n[nH]c3C)n2)cc1OCCCN1CCCC1` [Compound 129], for which the IC50 on human EHMT2 913-1193 and on EHMT1 was over 10 µM each time.
With `COc1ccc(Nc2nccc(-c3c(C)noc3C)n2)cc1OCCCN1CCCC1` [Compound 130], the IC50 at human EHMT2 913-1193 and on EHMT1 was over 10 µM in each case.
`COc1ccc(Nc2nccc(-c3c[nH]nc3C)n2)cc1OCCCN1CCCC1` [Compound 131]: the IC50 at human EHMT2 913-1193 and on EHMT1 was over 10 µM throughout.
Regarding `COc1ccc(Nc2nccc(N3CCN(C)C(=O)C3)n2)cc1OCCCN1CCCC1` [Compound 132], the IC50 on human EHMT2 913-1193 and at EHMT1 was over 10 µM in each case.
With `COc1ccc(Nc2nccc(N3CCCNC(=O)C3)n2)cc1OCCCN1CCCC1` [Compound 133], the IC50 was 1 to 10 µM at human EHMT2 913-1193 and over 10 µM at EHMT1.
The corresponding values for `COc1ccc(Nc2nccc(N3CCc4nc[nH]c(=O)c4C3)n2)cc1OCCCN1CCCC1` [Compound 134] are over 10 µM and over 10 µM.
For `COc1ccc(Nc2nccc(N(C)Cc3cccnc3)n2)cc1OCCCN1CCCC1` [Compound 135], in that order: 1 to 10 µM and 1 to 10 µM.
The corresponding values for `COc1ccc(Nc2nccc(N(C)Cc3ccccn3)n2)cc1OCCCN1CCCC1` [Compound 136] are 1 to 10 µM and 1 to 10 µM.
As to `COc1ccc(Nc2nccc(NC3COC3)n2)cc1OCCCN1CCCC1` [Compound 137], the IC50 on human EHMT2 913-1193 and on EHMT1 was 1 to 10 µM each time.
`COc1ccc(Nc2nccc(N3CCCN(C(C)=O)CC3)n2)cc1OCCCN1CCCC1` [Compound 138]: the IC50 on human EHMT2 913-1193 is 1 to 10 µM; at EHMT1 it was over 10 µM.
The corresponding values for `COc1ccc(Nc2nccc(N3CCN(C(C)=O)CC3)n2)cc1OCCCN1CCCC1` [Compound 139] are over 10 µM and over 10 µM.
The corresponding values for `COc1ccc(Nc2nccc(N(C)CCCO)n2)cc1OCCCN1CCCC1` [Compound 140] are 1 to 10 µM and 1 to 10 µM.
For `COc1ccc(Nc2nccc(N3CCC(C)(O)CC3)n2)cc1OCCCN1CCCC1` [Compound 141], in that order: over 10 µM and over 10 µM.
In the case of `COc1ccc(Nc2nccc(N(C)C3CCOCC3)n2)cc1OCCCN1CCCC1` [Compound 142], the IC50 at human EHMT2 913-1193 and at EHMT1 was 1 to 10 µM each time.
Take `COCCCN(C)c1ccnc(Nc2ccc(OC)c(OCCCN3CCCC3)c2)n1` [Compound 143]: the IC50 on human EHMT2 913-1193 and at EHMT1 was 1 to 10 µM each time.
`COc1ccc(Nc2nccc(CNC(C)=O)n2)cc1OCCCN1CCCC1` [Compound 144]: the IC50 at human EHMT2 913-1193 and on EHMT1 was over 10 µM throughout.
As to `CC(=O)N1CCC(CNc2ccnc(Nc3ccc(C)c(OCCCN4CCCC4)c3)n2)CC1` [Compound 145], the IC50 at human EHMT2 913-1193 and on EHMT1 was 1 to 10 µM each time.
Regarding `COc1ccc(Nc2nccc(N(C)CC3CCOCC3)n2)cc1OCCCN1CCCC1` [Compound 146], the IC50 on human EHMT2 913-1193 and on EHMT1 was over 10 µM throughout.
Regarding `COc1ccc(Nc2nccc(N3CCC(C(C)(C)O)CC3)n2)cc1OCCCN1CCCC1` [Compound 147], the IC50 on human EHMT2 913-1193 and on EHMT1 was 1 to 10 µM each time.
In the case of `COc1ccc(Nc2nccc(N3CCC(O)CC3)n2)cc1OCCCN1CCCC1` [Compound 148], the IC50 on human EHMT2 913-1193 is 1 to 10 µM; at EHMT1 it was over 10 µM.
For `COc1ccc(Nc2nccc(N3CCC(OC)CC3)n2)cc1OCCCN1CCCC1` [Compound 149], in that order: over 10 µM and over 10 µM.
On to `COc1ccc(Nc2nccc(N(C)CCO)n2)cc1OCCCN1CCCC1` [Compound 150], for which the values for the IC50 at human EHMT2 913-1193 and at EHMT1 were 0.1 to 1 µM and 1 to 10 µM, respectively.
